Patent US11590188B2, “Composition for the treatment of urinary tract infections” (priority 2020, dated 2023)
Where two headings read alike, the source gives them in different places.

Key:
[1] = single ingredient, doses of 15-24 grams/day; cited from earlier work
[2] = Earlier antibiotic treatment of the Example 2 subjects; assay type: in vivo, human; settings: 500 mg twice daily
Description: This can be compared to the subjects' situation before the study.

| Compound | Side effects [1] | Side effects ([2]; 6-9 months) | Recurrence of UTI symptoms ([2]; after 6-9 months) |
| --- | --- | --- | --- |
| O=C[C@@H](O)[C@@H](O)[C@H](O)[C@H](O)CO [D-mannose] | bloating, gas and diarrhea |  |  |
| CC1=C(C(=O)O)N2C(=O)[C@@H](NC(=O)[C@H](N)c3ccccc3)[C@H]2SC1 [Cephalexin] |  | nausea, diarrhoea and yeast infections (oral and vaginal) | UTI symptoms had reoccurred after the course of antibiotics was completed |
